97 molecules from PubChem BioAssay AID857 (Vanderbilt High Throughput Screening Facility, 2007) can be followed below.

This assay has as its target D(1B) dopamine receptor (Homo sapiens) (UniProt P21918). The assay can be described thus: dopamine D5 receptor modulation at EC30 dopamine, dose response, selectivity assay for D1 allosteric modulator project, cell-based, HEK293, CRE-luciferase, luminescence (AID 857).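 Note: HEK 293 cells expressing human D5 with a CRE-driven luciferase reporter.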

SMILES strings stand for the structures. Calls of active or inactive are those of the source.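 Rule for the calls: active = a full or partial dose-response curve in at least two of three replicate runs; inactive = the rest.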

D(1B) dopamine receptor (Homo sapiens), sequence (P21918 whole entry, looked up): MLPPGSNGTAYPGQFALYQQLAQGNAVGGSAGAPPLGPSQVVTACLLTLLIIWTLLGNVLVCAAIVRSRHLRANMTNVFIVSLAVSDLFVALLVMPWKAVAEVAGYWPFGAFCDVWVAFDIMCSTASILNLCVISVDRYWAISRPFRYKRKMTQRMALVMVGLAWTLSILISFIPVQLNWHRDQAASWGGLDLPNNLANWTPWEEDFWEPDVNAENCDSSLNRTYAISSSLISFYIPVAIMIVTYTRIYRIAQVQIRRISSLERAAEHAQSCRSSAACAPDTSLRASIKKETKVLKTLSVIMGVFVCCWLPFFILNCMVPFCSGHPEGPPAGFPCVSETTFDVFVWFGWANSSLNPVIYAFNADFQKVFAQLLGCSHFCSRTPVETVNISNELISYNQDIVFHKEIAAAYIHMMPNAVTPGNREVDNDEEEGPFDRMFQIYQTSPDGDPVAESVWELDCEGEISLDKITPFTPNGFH

As for `COc1ccc(CCN(C)C(=O)C2CCCN(Cc3ccc(OC)c(OC)c3)C2)cc1OC` (configuration not stated), the result was inactive.
Still for that read-out and setting: in the case of `CCOC(=O)c1cnn(-c2cccc(Cl)c2)c1N` it was “inactive”; in that of `CCC(C)Sc1nc2c(c(=O)n1C)SC(C)C2` (configuration not stated), “inactive”.
Same read-out and setting: in the case of `CC(C)Cc1nc(N2CCN(C(=O)C(C)C)CC2)c(C#N)c2c1CCC2` it was “inactive”; in that of `CCOC(=O)c1[nH]c2ccccc2c1NC(=O)C(C)(C)C`, “inactive”; in that of `Cc1cc2cc(CN(CCN3CCOCC3)C(=O)Nc3ccccc3F)c(=O)[nH]c2cc1C`, “inactive”.
Same read-out and setting: in the case of `C=CCn1c(SCC(=O)Nc2sc(C)c(C)c2C(=O)OCC)nnc1-c1sc(N)nc1C` it was “inactive”; in that of `C=CCn1c2ccccc2c2nnc(SCC(=O)NC(C(=O)OC)C(C)C)nc21` (configuration not stated), “inactive”.
Turning to `Cc1ccccc1NC(=O)c1nc[nH]c1C(=O)NCc1ccccc1`, the result was inactive.
Still for that read-out and setting: for `CC(C)Cn1c(-c2cccs2)nc2nc3ccccc3nc21` the value was “inactive”.
On the same count and under the same terms, for `c1ccc2c(c1)CCCN2c1nc2ccccc2n2cnnc12` the value was “inactive”; for `COc1cc2c(cc1OC)C(C(=O)Nc1ccc3c(c1)OCCO3)C1c3ccccc3CCN1C2=O` (configuration not stated), “inactive”.
On the same count and under the same terms, for `C/C=C/Cn1c(SCCCc2ccccc2)nc2c1c(=O)[nH]c(=O)n2C` the value was “inactive”; for `COC(=O)c1c(-c2ccc(F)cc2)csc1NC(=O)c1ccco1`, “inactive”.
With `COc1cc2[nH]c(=S)n(C3CCCC3)c(=O)c2cc1OC`, the result was inactive.
The same measure, in the same setting: for `Cc1ccc(OCCN2C(=O)OC(C)(C)C2(C)O)cc1` (configuration not stated) the value was “inactive”.
`N#CC1=C(N)N(c2ccccc2)C2=C(C(=O)CCC2)C1c1cccs1` (configuration not stated): the outcome was inactive.
Still for that read-out and setting: in the case of `N#Cc1cc2ccccc2nc1SCC(=O)Nc1ccc(S(=O)(=O)N2CCCC2)cc1` it was “inactive”; in that of `O=C(Nc1cc(Cl)ccc1N1CCOCC1)c1cnccn1`, “inactive”; in that of `COc1ccc2c(C(F)(F)F)cc(=O)oc2c1C`, “inactive”.
Turning to `Cc1ccc(-c2nc3ncccn3c2NC(=O)C2CC2)cc1`, the result was inactive.
As for `COC(=O)c1ccccc1NC(=O)c1ccc2c(c1)OCCO2`, the result was inactive.
Same read-out and setting: for `N#Cc1c2c(nc(N)c1-c1ccccc1)CCCCC2` the value was “inactive”.
For `CCSC(C)CC1C/C(=N/O)c2c(CC)noc2C1` (configuration not stated), the outcome was inactive.
Still for that read-out and setting: for `CCc1nc2ccccc2c(C(=O)OCC(=O)NCc2ccco2)c1C` the value was “inactive”.
With `COc1ccccc1NC(=O)N(Cc1ccc2c(c1)OCO2)Cc1nc2ccccc2c(=O)[nH]1`, the outcome was inactive.
Still for that read-out and setting: in the case of `CCc1nnc(NC(=O)CSc2ncc(-c3ccccc3)n2CC)s1` it was “inactive”.
The same measure, in the same setting: in the case of `CCC1(CC)C(=O)NC(=NCCc2c[nH]c3ccccc23)NC1=O` it was “inactive”; in that of `N#CC1=C(N)Oc2nc(-c3ccccc3)[nH]c2C1c1cccnc1` (configuration not stated), “inactive”.
Same read-out and setting: for `CCOC(=O)c1oc2ccc(Br)cc2c1NC(=O)CN1CCN(C)CC1` the value was “inactive”; for `NC(=O)c1cc(-c2ccccc2)nc(N2CCCCCC2)n1`, “inactive”.
Turning to `C=CCSc1nnc2n(-c3ccccc3OC)c(=O)c3c4c(sc3n12)CCC4`, the result was inactive.
The same measure, in the same setting: for `C(=N\C(/N=C/c1ccco1)c1ccco1)/c1ccco1` the value was “inactive”; for `COc1ccc2[nH]c(=O)c(CN(Cc3cccs3)Cc3nnnn3C(C)(C)C)cc2c1`, “inactive”.
The same measure, in the same setting: in the case of `CC(C)C1C(C#N)=C(N)Oc2n[nH]c(-c3ccccc3)c21` (configuration not stated) it was “inactive”.
Still for that read-out and setting: for `CCOC(=O)N1CCN(C(=O)CCCn2c(=S)[nH]c3ccccc3c2=O)CC1` the value was “inactive”; for `CCCn1c(SCC(=O)Nc2sc(C)c(C)c2C(=O)OCC)nc2c1c(=O)n(C)c(=O)n2C`, “inactive”; for `N#CCSc1ncnc2sc3c(c12)CCC3`, “inactive”.
For `O=c1c2ccccc2nc(SCc2cccc(F)c2)n1Cc1ccco1`, the result was inactive.
The same measure, in the same setting: in the case of `Cc1cc(=O)n(CC=C(Cl)Cl)c2ccccc12` it was “inactive”.
For orientation: EC50 means the concentration at which the effect is half-maximal. Regarding `COc1ccc(Cl)cc1C(=O)CSc1nnnn1C1CCCC1`, the EC50 was 661 nM.
With `CCC(=O)Nc1cccc(NC(=O)c2cc3ccccc3o2)c1`, the outcome was inactive.
On the same count and under the same terms, for `Cc1[nH]n(-c2ccccc2)c(=O)c1S(=O)(=O)c1ccccc1` the value was “inactive”.
For the molecule `CCOc1ccc(-c2nnn(CC(=O)NCc3ccc(OC)cc3)n2)cc1OCC`, the EC50 was 473 nM.
`CC1=CC(C)(C)N=C(NC#N)N1`: the result was inactive.
Still for that read-out and setting: for `Cc1ccc(CCNS(=O)(=O)c2cnc[nH]2)cc1` the value was “inactive”.
Still for that read-out and setting: for `Cc1ccc(C2C(C#N)=C(N)Oc3n[nH]c(-c4cccs4)c32)s1` (configuration not stated) the value was “inactive”; for `CCOC(=O)c1ccc(Oc2cc(C)nc(SC)n2)cc1`, “inactive”; for `CN1CCN(CC(O)COCc2ccc3c(c2)OCO3)CC1` (configuration not stated), “inactive”.
Regarding `C=CCn1c(=S)[nH]c2nc3c(cc2c1=O)CCCC3`, the outcome was inactive.
For `Cc1cc(NS(=O)(=O)c2ccc(NC(=O)COc3ccccc3C(C)C)cc2)no1`, the result was inactive.
As for `COC(=O)c1c(-c2ccccc2)csc1NC(=O)c1ccco1`, the outcome was inactive.
On the same count and under the same terms, for `CCOC(=O)C1=C(C)Nc2nc(SC)nn2C1c1ccc(C(=O)OC)cc1` (configuration not stated) the value was “inactive”.
On the same count and under the same terms, in the case of `c1ccc(-c2nc3nonc3nc2-c2ccccc2)cc1` it was “inactive”; in that of `COc1ccc2nc(SCC(=O)N3CCCCCC3)c(C#N)cc2c1`, “inactive”; in that of `COc1cccc(N2C(=O)C3ON(c4ccccc4)C(c4cccs4)C3C2=O)c1` (configuration not stated), “inactive”.
Same read-out and setting: for `CSc1ccccc1NC(=O)c1onc(C)c1Cl` the value was “inactive”; for `CCOc1ccc(N/C(SC)=C(/C#N)C(N)=O)cc1`, “inactive”.
As for `CCCCCn1c(SCC(=O)OC)nc2c1c(=O)[nH]c(=O)n2C`, the result was inactive.
The same measure, in the same setting: for `O=C(CSc1nc2ccccc2s1)NC(=O)NCc1ccco1` the value was “inactive”.
The same measure, in the same setting: for `CC1(C)CN=C(Nc2nc3ccccc3s2)S1` the value was “inactive”.
Still for that read-out and setting: for `Nc1ncnc2c1ncn2CCOc1ccccc1` the value was “inactive”.
With `CCn1nc(C(=O)OCC(=O)N2c3ccccc3CC2C)c2ccccc2c1=O` (configuration not stated), the outcome was inactive.
Regarding `COC(=O)c1ccc(OCCn2cnc3ccccc3c2=O)cc1`, the result was inactive.
With `CS(=O)(=O)c1sc2nc(-c3cccs3)cc(-c3ccccc3)c2c1N`, the outcome was inactive.
In the case of `COc1ccc(C2CC(c3ccc(Cl)cc3Cl)Nc3nc(N)nn32)cc1` (configuration not stated), the result was inactive.
Same read-out and setting: for `COC(=O)C(C)C1Sc2ccccc2NC1=O` (configuration not stated) the value was “inactive”; for `O=C(CCc1ccc(CCC(=O)c2cccs2)s1)c1cccs1`, “inactive”.
With `C=CCNC(=O)C1CC(c2cccc(OC)c2)=NO1` (configuration not stated), the result was inactive.
The same measure, in the same setting: for `CCc1nc2sc3ccccc3c(=O)c2c(=O)n1Cc1ccco1` the value was “inactive”; for `COc1ccc(C(=O)Nc2nnc(Cc3cccs3)s2)cc1OC`, “inactive”.
The same measure, in the same setting: for `Cc1sc2ncnc(SCC(=O)N3CCCC3)c2c1C` the value was “inactive”; for `Cc1cc(-n2nc(C)cc2C)nc(NS(=O)(=O)c2ccccc2)n1`, “inactive”.
Turning to `O=C(c1ccco1)N1CCN(c2nc(C3CC3)nc3sc4c(c23)CCCC4)CC1`, the result was inactive.
Still for that read-out and setting: for `C=CCSc1nc2ccccc2c(=O)[nH]1` the value was “inactive”; for `COc1ccc(-c2noc(-c3ccco3)n2)cc1OC`, “inactive”; for `N#Cc1nc(-c2cccs2)oc1NCC1CCCO1` (configuration not stated), “inactive”.
The same measure, in the same setting: in the case of `O=C(c1cccn2c(=O)c3cc(Cl)ccc3nc12)N1CCN(Cc2ccc3c(c2)OCO3)CC1` it was “inactive”.
Still for that read-out and setting: in the case of `CC(C)Oc1ccccc1C1CC(=O)Nc2cc3c(cc21)OCCO3` (configuration not stated) it was “inactive”; in that of `O=C(CCSc1nc2ccccc2o1)N1CCOCC1`, “inactive”; in that of `Cc1cc(NCCCn2ccnc2)n2c(nc3ccccc32)c1C#N`, “inactive”.
Take `O=S1(=O)N=C(N2CCc3ccccc3C2)c2ccccc21`: the outcome was inactive.
With `CCN(CCCNC(=O)CN(C)S(=O)(=O)c1cccc2nsnc12)c1cccc(C)c1`, the result was inactive.
Still for that read-out and setting: in the case of `O=C(OCC#CCSc1nnc(-c2ccc(Br)cc2)o1)c1ccco1` it was “inactive”; in that of `CC(C)Cn1c(=O)c(C(=O)Nc2cnccn2)c(O)c2ccccc21`, “inactive”; in that of `Cc1nc(N2CCC(C(N)=O)CC2)c2nnn(Cc3ccccc3)c2n1`, “inactive”.
On the same count and under the same terms, in the case of `COc1ccccc1-n1c(=O)[nH]c2c(C(N)=O)nc(CC(C)C)nc21` it was “inactive”; in that of `Cn1c(=O)c2c(nc(SCCCO)n2Cc2ccccc2Cl)n(C)c1=O`, “inactive”; in that of `CCOc1ncccc1C(=O)OCc1nnc(-c2ccccc2)o1`, “inactive”.
The same measure, in the same setting: for `COc1ccc(-c2c3c(=O)n(C)c(=O)n(C)c3cn2-c2ccccc2)cc1` the value was “inactive”; for `CCCC(=O)Nc1ccc(NC(=O)C2CC2)cn1`, “inactive”; for `C=CCn1c(=O)c2c(C)c(C)sc2n2c(Nc3ccc(OC)cc3)nnc12`, “inactive”.
`COc1cccc(-c2nn3c(-c4cc(C)[nH]n4)nnc3s2)c1`: the result was inactive.
Still for that read-out and setting: for `COCCCNc1nc2ccccc2nc1NS(=O)(=O)c1cccs1` the value was “inactive”; for `COC(=O)c1ccc(C(=O)OC)c(NC(=O)COC(=O)C23CC4CC(CC(O)(C4)C2)C3)c1`, “inactive”.
For `CCOC(=O)c1[nH]cnc1C(=O)Nc1ccccn1`, the outcome was inactive.
Same read-out and setting: in the case of `COc1ccccc1CNC(=O)c1ccc(NS(=O)(=O)c2c(C)noc2C)cc1` it was “inactive”.
